Experimental data as given in US7608717B2, “Sulfonyldihydroimidazopyridinone compounds as 5-hydroxytryptamine-6 ligands” (Wyeth, priority 2003, dated 2009).

Target: T1, human cloned 5-HT6 receptors (Homo sapiens, UniProt P50406)
T1 construct: expressed in transfected cells; host or cells: HeLa cells
Assay: 5-HT6 binding affinity ([3H]-LSD displacement, membranes of Hela cells expressing human cloned 5-HT6 receptors)
Settings: [3H]-LSD 3.0 nM, Hela cell membranes, 120 min at room temperature
Experimental: The affinity of test compounds for the serotonin 5-HT6 receptor is evaluated in the following manner. Cultured Hela cells expressing human cloned 5-HT6 receptors are harvested and centrifuged at low speed (1,000×g) for 10.0 min to remove the culture media. The harvested cells are suspended in half volume of fresh physiological phosphate buffered saline solution and recentrifuged at the same speed. This operation is repeated. The collected cells are then homogenized in ten volumes of 50 mM Tris.HCl (pH 7.4) and 0.5 mM EDTA. The homogenate is centrifuged at 40,000×g for 30.0 min and the precipitate is collected. The obtained pellet is resuspended in 10 volumes of Tris.HCl buffer and recentrifuged at the same speed. The final pellet is suspended in a small volume of Tris.HCl buffer and the tissue protein content is determined in aliquots of 10-25 μl volumes. Bovine Serum Albumin is used as the standard in the protein determination according to the method described in Lowry et al., J. Biol. Chem., 193:265 (1951). The volume of the suspended cell membranes is adjusted to give a tissue protein concentration of 1.0 mg/ml of suspension. The prepared membrane suspension (10 times concentrated) is aliquoted in 1.0 ml volumes and stored at −70° C. until used in subsequent binding experiments.
Binding experiments are performed in a 96 well microtiter plate format, in a total volume of 200 μl. […] The test compounds are added in 20.0 μl volume.
The reaction is allowed to proceed in the dark for 120 min at room temperature, at which time, the bound ligand-receptor complex is filtered off on a 96 well unifilter with a Packard Filtermate® 196 Harvester. The bound complex caught on the filter disk is allowed to air dry and the radioactivity is measured in a Packard TopCount® equipped with six photomultiplier detectors, after the addition of 40.0 μl Microscint®-20 scintillant to each shallow well. The unifilter plate is heat-sealed and counted in a PackardTopCount® with a tritium efficiency of 31.0%.
Binding in the presence of varying concentrations of test compound is expressed as a percentage of specific binding in the absence of test compound. The results are plotted as log % bound versus log concentration of test compound. […] A linear regression line of data points is plotted, from which the IC50 value is determined and the Ki value is determined based upon the following equation: Ki=IC50/(1+L/KD) where L is the concentration of the radioactive ligand used and KD is the dissociation constant of the ligand for the receptor, both expressed in nM.

T1 sequence (P50406 whole entry): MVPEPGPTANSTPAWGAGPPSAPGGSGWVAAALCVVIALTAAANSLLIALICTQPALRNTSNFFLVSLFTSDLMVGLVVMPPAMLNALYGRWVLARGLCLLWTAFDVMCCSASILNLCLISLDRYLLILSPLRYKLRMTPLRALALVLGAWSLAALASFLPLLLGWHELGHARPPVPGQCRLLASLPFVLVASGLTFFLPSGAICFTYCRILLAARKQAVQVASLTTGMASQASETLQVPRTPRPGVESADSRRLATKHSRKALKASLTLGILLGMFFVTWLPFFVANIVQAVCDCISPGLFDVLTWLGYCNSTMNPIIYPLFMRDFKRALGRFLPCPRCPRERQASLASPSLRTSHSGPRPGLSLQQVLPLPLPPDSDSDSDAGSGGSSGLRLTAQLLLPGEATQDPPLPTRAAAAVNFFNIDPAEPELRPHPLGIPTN

Compound	Ki [nM]
NCCn1c(=O)n(S(=O)(=O)c2ccc3ccccc3c2)c2cccnc21 [Example 18, 3-(2-aminoethyl)-1-(2-naphthylsulfonyl)-1,3-dihydro-2H-imidazo[4,5-b]pyridin-2-one]	5
CN(C)CCn1c(=O)n(S(=O)(=O)c2cccc(F)c2)c2cccnc21 [Example 4, 3-(2-dimethylaminoethyl)-1-[(3-fluorophenyl)sulfonyl]-1,3-dihydro-2H-imidazo[4,5-b]pyridin-2-one]	80
NCCn1c(=O)n(S(=O)(=O)c2ccccc2F)c2cccnc21 [Example 20, 3-(2-aminoethyl)-1-[(2-fluorophenyl)sulfonyl]-1,3-dihydro-2H-imidazo[4,5-b]pyridin-2-one]	77
NCCn1c(=O)n(S(=O)(=O)c2c(Cl)nc3sccn23)c2cccnc21 [Example 17, 3-(2-aminoethyl)-1-[(6-chloroimidazo[2,1-b][1,3]thiazol-5-yl)sulfonyl]-1,3-dihydro-2H-imidazo[4,5-b]pyridin-2-one]	4
NCCn1c(=O)n(S(=O)(=O)c2cccc(Cl)c2Cl)c2cccnc21 [Example 24, 3-(2-aminoethyl)-1-[(2,3-dichlorophenyl)sulfonyl]-1,3-dihydro-2H-imidazo[4,5-b]pyridin-2-one]	9
NCCn1c(=O)n(S(=O)(=O)c2ccc(Cl)s2)c2cccnc21 [Example 14, 3-(2-Aminoethyl)-1-[(5-chlorothien-2-yl)sulfonyl]-1,3-dihydro-2H-imidazo[4,5-b]pyridin-2-one]	18
NCCn1c(=O)n(S(=O)(=O)c2cc(Cl)sc2Cl)c2cccnc21 [Example 27, 3-(2-aminoethyl)-1-[(2,5-dichlorothien-3-yl)sulfonyl]-1,3-dihydro-2H-imidazo[4,5-b]pyridin-2-one]	22
NCCn1c(=O)n(S(=O)(=O)c2ccccc2Cl)c2cccnc21 [Example 22, 3-(2-aminoethyl)-1-[(2-chlorophenyl)sulfonyl]-1,3-dihydro-2H-imidazo[4,5-b]pyridin-2-one]	55

Further lines, results first:

Ki [nM]	Compound
17	NCCn1c(=O)n(S(=O)(=O)c2ccc(Cl)cc2)c2cccnc21 [Example 23, 3-(2-aminoethyl)-1-[(4-chlorophenyl)sulfonyl]-1,3-dihydro-2H-imidazo[4,5-b]pyridin-2-one]
16	NCCn1c(=O)n(S(=O)(=O)c2cccc(Cl)c2)c2cccnc21 [Example 16, 3-(2-aminoethyl)-1-[(3-chlorophenyl)sulfonyl]-1,3-dihydro-2H-imidazo[4,5-b]pyridin-2-one]
44	NCCn1c(=O)n(S(=O)(=O)c2ccccc2)c2cccnc21 [Example 15, 3-(2-aminoethyl)-1-(phenylsulfonyl)-1,3-dihydro-2H-imidazo[4,5-b]pyridin-2-one]
14	COc1cccc(S(=O)(=O)n2c(=O)n(CCN)c3ncccc32)c1 [Example 19, 3-(2-aminoethyl)-1-[(3-methoxyphenyl)sulfonyl]-1,3-dihydro-2H-imidazo[4,5-b]pyridin-2-one]
12	NCCn1c(=O)n(S(=O)(=O)c2cccc(Br)c2)c2cccnc21 [Example 25, 3-(2-aminoethyl)-1-[(3-bromophenyl)sulfonyl]-1,3-dihydro-2H-imidazo[4,5-b]pyridin-2-one]
9	NCCn1c(=O)n(S(=O)(=O)c2ccc(Br)s2)c2cccnc21 [Example 26, 3-(2-aminoethyl)-1-[(5-bromothien-2-yl)sulfonyl]-1,3-dihydro-2H-imidazo[4,5-b]pyridin-2-one]
23	CN(C)CCn1c(=O)n(S(=O)(=O)c2cccc(Br)c2)c2cccnc21 [Example 7, 1-[(3-bromophenyl)sulfonyl]-3-[2-(dimethylamino)ethyl]-1,3-dihydro-2H-imidazo[4,5-b]pyridin-2-one]
